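Assay format: 96-well plates, 48-hour exposure. Abbreviation: GI50, concentration required for 50% inhibition of growth. The concentration for full growth arrest is given as TGI.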

Some test systems named below: A498 renal; SK-MEL-2 melanoma; ACHN renal; OVCAR-8 ovarian; SW-620 colon; NCI-H226 lung; HCT-15 colon; MALME-3M melanoma; OVCAR-5 ovarian; LOX IMVI melanoma.
Experiment in all cases: NCI-60 cell line screen, 48 h

For `COc1ccc(/C=C/[N+](=O)[O-])cc1`, the TGI is 17.3 µM in the assay on A498 renal; 52.7 µM in the assay on SK-MEL-2 melanoma; 32.4 µM with ACHN renal; 5.9 µM in the assay on OVCAR-8 ovarian; over 100 µM in the assay on SW-620 colon; 17.4 µM in the assay on NCI-H226 lung. In addition, the TGI with HCT-15 colon turned out to be 15.2 µM; in the assay on MALME-3M melanoma, 35.3 µM; in the assay on OVCAR-5 ovarian, 50.8 µM.
As for `C#C[C@@]1(O)[C@@H](CO)O[C@@H](n2cc(F)c3c(N)ncnc32)[C@@H]1O`, the GI50 in the assay on A498 renal is 0.725 µM; in the assay with SK-MEL-2 melanoma, 0.446 µM; in the assay with LOX IMVI melanoma it was 0.279 µM; in the assay on ACHN renal, 0.24 µM; in the assay on OVCAR-8 ovarian, 0.256 µM; in the assay on SW-620 colon it was 0.159 µM. Moreover, the GI50 in the assay on NCI-H226 lung is 0.521 µM; in the assay on HCT-15 colon it was 0.297 µM; with MALME-3M melanoma, 0.362 µM; in the assay on OVCAR-5 ovarian it was 1.78 µM. The TGI was 2.27 µM in the assay on A498 renal; 2.87 µM in the assay with SK-MEL-2 melanoma; 1.11 µM in the assay on LOX IMVI melanoma; over 100 µM in the assay with ACHN renal; 3.69 µM with OVCAR-8 ovarian; 2.9 µM in the assay on SW-620 colon. Further, the TGI in the assay with NCI-H226 lung was 2.63 µM; in the assay on HCT-15 colon, 3.19 µM; in the assay on MALME-3M melanoma, 1.81 µM; in the assay with OVCAR-5 ovarian, over 100 µM.
`N#CC1=C(N)Nc2nc3ccccc3n2C1c1ccccc1` (stereo not given): the TGI with A498 renal was 96.1 µM; in the assay with SK-MEL-2 melanoma, over 100 µM; in the assay with LOX IMVI melanoma, over 100 µM; with ACHN renal, 68.5 µM; in the assay with OVCAR-8 ovarian, over 100 µM; in the assay with SW-620 colon it was over 100 µM. Moreover, the TGI with HCT-15 colon and with OVCAR-5 ovarian was over 100 µM throughout.
`C[C@H](CCC1=NCCN1)[C@H]1CC[C@H]2[C@@H]3CC[C@@H]4C[C@H](O)CC[C@]4(C)[C@H]3CC[C@]12C`: the TGI was 34.5 µM in the assay with A498 renal; 21.3 µM in the assay with SK-MEL-2 melanoma; 4.76 µM in the assay with LOX IMVI melanoma; 24.2 µM with ACHN renal; 37.2 µM in the assay with OVCAR-8 ovarian; over 48.9 µM with SW-620 colon. Besides, the TGI with NCI-H226 lung is 28.2 µM; with HCT-15 colon, over 50.2 µM; in the assay on MALME-3M melanoma, 7.76 µM; with OVCAR-5 ovarian, 34.7 µM.
For `O=C1OC2(c3ccc(O)cc3Oc3cc(O)ccc32)c2c1c(-c1ccccc1)c(-c1ccccc1)c(-c1ccccc1)c2-c1ccccc1`, the TGI is 33.9 µM with A498 renal; 36.3 µM in the assay with SK-MEL-2 melanoma; 32.4 µM in the assay with LOX IMVI melanoma; 40.9 µM in the assay with ACHN renal; 45.2 µM with OVCAR-8 ovarian; 52 µM in the assay on SW-620 colon. Further, the TGI in the assay on NCI-H226 lung is 87.3 µM; in the assay with HCT-15 colon, 38.5 µM; in the assay with MALME-3M melanoma, 44.6 µM; in the assay on OVCAR-5 ovarian, 49.3 µM.
For the compound `Nc1nncs1`, the TGI in the assay with A498 renal, with SK-MEL-2 melanoma, with LOX IMVI melanoma, in the assay on ACHN renal, in the assay with OVCAR-8 ovarian and with SW-620 colon was over 5000 µM in each case. Moreover, the TGI in the assay with NCI-H226 lung is over 5000 µM; with HCT-15 colon, 4920 µM; in the assay on MALME-3M melanoma, over 5000 µM; in the assay with OVCAR-5 ovarian, over 4450 µM.
`NC(=O)c1cc(C2OC(CO)C(O)C2O)nn1-c1ccc([N+](=O)[O-])cc1` (stereo not given): the TGI with A498 renal, in the assay with SK-MEL-2 melanoma, in the assay with LOX IMVI melanoma, in the assay on ACHN renal, in the assay with OVCAR-8 ovarian and in the assay with SW-620 colon was over 100 µM each time. For the same compound, the TGI in the assay with NCI-H226 lung, in the assay on HCT-15 colon, in the assay on MALME-3M melanoma and with OVCAR-5 ovarian was over 100 µM each time.
`N#CC(C#N)=C1CCCCc2ccc([N+](=O)[O-])cc21`: the TGI in the assay with A498 renal, in the assay on SK-MEL-2 melanoma, in the assay with LOX IMVI melanoma, with ACHN renal, in the assay with OVCAR-8 ovarian and in the assay with SW-620 colon was over 100 µM each time. Moreover, the TGI with NCI-H226 lung, in the assay with HCT-15 colon, in the assay on MALME-3M melanoma and with OVCAR-5 ovarian was over 100 µM in each case.
Regarding `COc1cc2c3c(n(C4CCNCC4)c(=O)c2cc1OC)-c1cc2c(cc1C3=O)OCO2`, the GI50 in the assay on A498 renal is 0.619 µM; in the assay on SK-MEL-2 melanoma it was 20.1 µM; with SW-620 colon it was 0.225 µM; in the assay on NCI-H226 lung, 0.635 µM; with HCT-15 colon, 0.396 µM. Moreover, the TGI in the assay on A498 renal was 3.32 µM; in the assay with SK-MEL-2 melanoma, over 100 µM; in the assay with SW-620 colon, 1.95 µM; with NCI-H226 lung, 2.94 µM; in the assay with HCT-15 colon it was 1.77 µM.
On to `O=C(O)Cc1[nH]cnc1C(=O)O`, for which the TGI in the assay with A498 renal, in the assay with SK-MEL-2 melanoma, with LOX IMVI melanoma, in the assay with ACHN renal, in the assay on OVCAR-8 ovarian and in the assay on SW-620 colon was over 100 µM throughout. In addition, the TGI in the assay on NCI-H226 lung, in the assay on HCT-15 colon, in the assay on MALME-3M melanoma and in the assay with OVCAR-5 ovarian was over 100 µM each time.
In the case of `CSc1ccc(-c2cc(-c3nc4ccccc4[nH]3)nc3[nH]c(-c4nc5ccccc5[nH]4)cc(=O)c23)cc1`, the TGI in the assay on SK-MEL-2 melanoma, in the assay on LOX IMVI melanoma, in the assay with ACHN renal, in the assay on OVCAR-8 ovarian, in the assay on NCI-H226 lung and with HCT-15 colon was over 100 µM in each case. Moreover, the TGI with MALME-3M melanoma and in the assay on OVCAR-5 ovarian was over 100 µM each time.

These data come from PubChem BioAssay (NCI).
